Data set [1] in a line: Toxicity studies. The data set is classed as in vivo, balb/c mice. The procedure: Small animal models. For imaging and therapy studies, a U87MG subcutaneous mouse model was used. […] For toxicity studies, normal 5-6 week old balb/c mice (Envigo laboratories). All the animal studied were performed according to a protocol approved by the Institutional Animal Care and Use Committee (IACUC) of University of Georgia. Toxicity studies. Fifteen normal balb/c mice were randomly divided into 5 groups and received regimens specified in the in vivo therapy study section. The body weight and anal temperature of each mouse were measured daily at the same time (starting from 6 days before injection through Day 6). On Day 7, all mice were euthanized and the whole blood was collected. Part of the blood samples were used for a complete blood count (CBC) test. […] All tests were conducted by following the vendors' protocols. CRP and TNF-α kits were purchased from RayBiotech, ALT (MAK055) and AST (MAK052) kits from Sigma-Aldrich, and BUN from Arbor Assays. Each assay was repeated at least twice.

Data set [2] relates to RAW264.7 cells. As to the kind of experiment: Macrophage viability (MTT, Live/Dead Calcein AM/EthD-III). The data set is classed as cell-based. The following applies: Mus musculus, RAW264.7 cells incubated 24 h. As to the method:
In vitro cellular loading studies. RAW264.7 (murine macrophages) and U87MG (human glioblastoma) were purchased from ATCC. RAW264.7 cells were cultured in RPMI1640 medium (Corning, USA) supplemented with 10% FBS (Corning, USA) and 1% penicillin-streptomycin (MediaTech, USA). During the nanoparticle loading stage, FBS-free RPMI1640 medium was used for culturing. U87MG cells were grown in DMEM medium (Corning, USA) supplemented with 10% FBS, 1% non-essential amino acids, and 1% penicillin-streptomycin. These two cell lines were incubated under 37° C. and 5% CO2 in a humid chamber. […] To determine the amount of Dox loaded into cells, DSN-laden cells were counted and then lysed by sonication in PBS (pH 5.0). The amounts of released Dox was measured by spectroscopic analysis. The Dox content on a per cell basis was calculated compared with macrophages without nanoparticle loading. […] To evaluate the impact of loaded DSNs on macrophages, the viability change was first assessed at different time points post nanoparticle loading by 3-(4,5-dimethythiazon-2-yl)-2,5-diphenyl tetrazolium bromide (MTT) assay or Live/Dead Cytotoxicity assay and the results were compared with normal macrophages. […]

Data set [3] has as its system U87MG tumors. Put plainly: In vivo therapy study. Set-up: species or system nude mice. The procedure: Small animal models. For imaging and therapy studies, a U87MG subcutaneous mouse model was used. The animal model was established by subcutaneously inoculating 1 million U87MG cells onto the right hind leg or the right flank (for PET imaging only) of a 5-6 week old athymic female nude mice (Harlan). For toxicity studies, normal 5-6 week old balb/c mice (Envigo laboratories). All the animal studied were performed according to a protocol approved by the Institutional Animal Care and Use Committee (IACUC) of University of Georgia.
In vivo therapy study. Treatments started when tumor size reached 100-150 mm^3. 25 mice were randomly divided into 5 groups and were i.v. injected with PBS, free Dox, DSN-52 in PBS, MF cells, and DSN-MF cells on Day 0. Dox, DSN-52, and DSN-MF were injected at 3 mg Dox kg^−1, and 4 million cells were injected into the mice in MF and DSN-MF groups. The body weight and tumor volume of each mouse were measured every other day for 2 weeks. The tumor volume was calculated by the following equation: tumor volume=0.5×length×(width)^2, where length≥width. Mice were euthanized once the tumor volume was above 1,700 mm^3.

These results are taken from US20210393538A1, “SILICA-BASED DRUG NANOCAPSULES” (priority 2018, published 2021).

Counter-ions that a name gives are not always drawn.

In the case of `COc1cccc2c1C(=O)c1c(O)c3c(c(O)c1C2=O)C[C@@](O)(C(=O)CO)C[C@@H]3O[C@H]1C[C@H](N)[C@H](O)[C@H](C)O1` [Dox, doxorubicin hydrochloride salt], in data set [1] (CBC, Day 7), the Bands is listed as 12%, the HCT is 48.9%, the HGB amounted to 44.0 g/dL and the Lymphs is on record as 82%. Besides, in data set [1] (CBC, Day 7), the MCH is 31.6 pg, the MCHC is 62 g/dL, the MCV is 15.4 fL and the Monos turned out to be 6%. In data set [1] (CBC, Day 7), this compound displayed an RBC of 1.39e+07 µL⁻¹, a Segs of 0% and a WBC of 13490 µL⁻¹. In data set [1] (Day 7), the “complete blood count (CBC) analysis, overall” value is “abnormalities”. In data set [1] (normal balb/c mice, Day 2, hydrochloride salt), the body weight change entry was “small degree of body weight loss”. In addition, the IC50 (as a rule, the concentration needed to halve the response being measured) in data set [2] is 1.5 µg/mL. The “tumor growth inhibition (TGI) rate” value in data set [3] (Day 14, relative to the PBS group) came out at 24.84%. The same compound returned a median survival in data set [3] (one i.v. dose on Day 0) of 16 days. The “average tumor volume on Day 14” value in data set [3] (one i.v. dose on Day 0, 3 mg Dox kg^−1 and/or ˜4×10^6 cells per mouse) is recorded as 1328.6 mm^3.
